This is an account of results in patent publication US8741836B2, “Polypeptides” (Novo Nordisk A/S, priority 2011, dated 2014).

The structures appear in SMILES notation. Starred links: 1 amine or outer side, 2 acyl side, 3 side chain; linkers in the order of their positions; H or OH if unused. Positions of bridges follow the written chain, without caps; N, C: chain ends. Residues, ends and D or L forms follow the SMILES beside them. *: point of attachment. C20 diacid = O=C(O)CCCCCCCCCCCCCCCCCCC(=O)*; C18 diacid = O=C(O)CCCCCCCCCCCCCCCCC(=O)*; γGlu = O=C(O)[C@H](CCC(=O)[*:2])N[*:1] A value given as a limit tells only on which side of the number the result lay.

The series is described as follows: Assay (III) ThT fibrillation assay for physical stability. It counts as physicochemical. As to conditions: pH 4.0, ThT fibrillation assay. The source says: Assay (III)—ThT Fibrillation Assays for the Assessment of Physical Stability of Protein formulations Low physical stability of a polypeptide may lead to amyloid fibril formation, which is observed as well-ordered, thread-like macromolecular structures in the sample eventually resulting in gel formation. This has traditionally been measured by visual inspection of the sample. However, that kind of measurement is very subjective and depending on the observer. Therefore, the application of a small molecule indicator probe is much more advantageous. Thioflavin T (ThT) is such a probe and has a distinct fluorescence signature when binding to fibrils [Naiki et al. (1989) Anal. Biochem. 177, 244-249; LeVine (1999) Methods. Enzymol. […], 274-284]. The time course for fibril formation can be described by a sigmoidal curve with the following expression [Nielsen et al. (2001) Biochemistry 40, 6036-6046]: [formula] Here, F is the ThT fluorescence at the time t. The constant t0 is the time needed to reach 50% of maximum fluorescence. […] Few of those intermediates nucleate to form a template onto which further intermediates may assembly and the fibrillation proceeds. The lag-time corresponds to the interval in which the critical mass of nucleus is built up and the apparent rate constant is the rate with which the fibril itself is formed. Sample Preparation Samples were prepared freshly before each assay. Each sample composition is described in each example. The pH of the sample was adjusted to the desired value using appropriate amounts of concentrated NaOH and HClO4 or HCl. Thioflavin T was added to the samples from a stock solution in H2O to a final concentration of 1 μM. Sample aliquots of 200 μl were placed in a 96 well microtiter plate (Packard OptiPlate™-96, white polystyrene). Usually, four or eight replica of each sample (corresponding to one test condition) were placed in one column of wells. The plate was sealed with Scotch Pad (Qiagen). Incubation and Fluorescence Measurement Incubation at given temperature, shaking and measurement of the ThT fluorescence emission were done in a Fluoroskan Ascent FL fluorescence platereader or Varioskan platereader (Thermo Labsystems). The temperature was adjusted to 37° C. The orbital shaking was adjusted to 960 rpm with an amplitude of 1 mm in all the presented data. Fluorescence measurement was done using excitation through a 444 nm filter and measurement of emission through a 485 nm filter. Each run was initiated by incubating the plate at the assay temperature for 10 min. The plate was measured every 20 minutes for a desired period of time. Between each measurement, the plate was shaken and heated as described. Data Handling The measurement points were saved in Microsoft Excel format for further processing and curve drawing and fitting was performed using GraphPad Prism. The background emission from ThT in the absence of fibrils was negligible. The data points are typically a mean of four or eight samples and shown with standard deviation error bars. Only data obtained in the same experiment (i.e. samples on the same plate) are presented in the same graph ensuring a relative measure of fibrillation between experiments. The data set may be fitted to Eq. (1). However, since full sigmodial curves in this case are not always achieved during the measurement time, the degree of fibrillation is expressed as ThT fluorescence tabulated as the mean of the samples and shown with the standard deviation at various time points. Measurement of Initial and Final Concentrations The polypeptide concentration in each of the tested formulations were measured both before application in the ThT fibrillation assay (“Initial”) and after completion of the ThT fibrillation (“After ThT assay”). Concentrations were determined by reverse HPLC methods using a pramlintide standard as a reference. Before measurement after completion 150 μl was collected from each of the replica and transferred to an Eppendorf tube. […]
In the case of `CC[C@H](C)[C@H](NC(=O)[C@@H]1CCCN1C(=O)CNC(=O)[C@H](Cc1ccccc1)NC(=O)[C@H](CC(N)=O)NC(=O)[C@H](CC(N)=O)NC(=O)[C@H](CO)NC(=O)[C@H](CO)NC(=O)[C@H](Cc1c[nH]cn1)NC(=O)[C@H](CCCNC(=N)N)NC(=O)[C@H](CC(C)C)NC(=O)[C@H](Cc1ccccc1)NC(=O)[C@H](CCC(=O)O)NC(=O)[C@H](C)NC(=O)[C@H](CC(C)C)NC(=O)[C@H](CCCNC(=N)N)NC(=O)[C@H](CCC(N)=O)NC(=O)[C@@H](NC(=O)[C@H](C)NC(=O)[C@@H]1CSSC[C@H](NC(=O)[C@H](CCCCN)NC(=O)[C@H](Cc2c[nH]cn2)NC(=O)[C@H](Cc2c[nH]cn2)NC(=O)CC[C@H](NC(=O)CCCCCCCCCCCCCCCCCCC(=O)O)C(=O)O)C(=O)N[C@@H](CC(N)=O)C(=O)N[C@@H]([C@@H](C)O)C(=O)N[C@@H](C)C(=O)N[C@@H]([C@@H](C)O)C(=O)N1)[C@@H](C)O)C(=O)N[C@@H](CC(C)C)C(=O)N1CCC[C@H]1C(=O)N1CCC[C@H]1C(=O)N[C@H](C(=O)N[C@@H](CC(N)=O)C(=O)N[C@H](C(=O)NCC(=O)N[C@@H](CO)C(=O)N[C@@H](Cc1c[nH]cn1)C(=O)N[C@H](C(=O)N[C@@H](Cc1ccc(O)cc1)C(N)=O)[C@@H](C)O)C(C)C)[C@@H](C)O` [Example 69, N-alpha-[(S)-4-Carboxy-4-(19-carboxynonadecanoylamino)butyryl]-His-His-[Glu14,Arg17,His35]-pramlintide] ({C20 diacid-γGlu}-HHKCNTATCATQRLAEFLRHSSNNFGPILPPTNVGSHTY-NH2; disulfide 4-9), the “ThT pH 4.0 lag time” value was >45 h.
As for `CC[C@H](C)[C@H](NC(=O)[C@@H]1CCCN1C(=O)CNC(=O)[C@H](Cc1ccccc1)NC(=O)[C@H](CC(N)=O)NC(=O)[C@H](CC(N)=O)NC(=O)[C@H](CO)NC(=O)[C@H](CO)NC(=O)[C@H](Cc1c[nH]cn1)NC(=O)[C@H](CCCNC(=N)N)NC(=O)[C@H](CC(C)C)NC(=O)[C@H](Cc1ccccc1)NC(=O)[C@H](CCC(=O)O)NC(=O)[C@H](C)NC(=O)[C@H](CC(C)C)NC(=O)[C@H](CCCNC(=N)N)NC(=O)[C@H](CCC(N)=O)NC(=O)[C@@H](NC(=O)[C@H](C)NC(=O)[C@@H]1CSSC[C@H](NC(=O)[C@H](CCCCN)NC(=O)[C@H](CCC(=O)O)NC(=O)CC[C@H](NC(=O)CCCCCCCCCCCCCCCCC(=O)O)C(=O)O)C(=O)N[C@@H](CC(N)=O)C(=O)N[C@@H]([C@@H](C)O)C(=O)N[C@@H](C)C(=O)N[C@@H]([C@@H](C)O)C(=O)N1)[C@@H](C)O)C(=O)N[C@@H](CC(C)C)C(=O)N1CCC[C@H]1C(=O)N1CCC[C@H]1C(=O)N[C@H](C(=O)N[C@@H](CC(N)=O)C(=O)N[C@H](C(=O)NCC(=O)N[C@@H](CO)C(=O)N[C@@H](Cc1c[nH]cn1)C(=O)N[C@H](C(=O)N[C@@H](Cc1ccc(O)cc1)C(N)=O)[C@@H](C)O)C(C)C)[C@@H](C)O` [Example 62, N-alpha-[(S)-4-Carboxy-4-(17-carboxyheptadecanoylamino)butyryl]-Glu-[Glu14,Arg17,His35]-pramlintide] ({C18 diacid-γGlu}-EKCNTATCATQRLAEFLRHSSNNFGPILPPTNVGSHTY-NH2; disulfide 3-8 (inferred); C-terminus assumed), the “ThT pH 4.0 lag time” value came to 30 h.
`CC[C@H](C)[C@H](NC(=O)[C@@H]1CCCN1C(=O)CNC(=O)[C@H](Cc1ccccc1)NC(=O)[C@H](CC(N)=O)NC(=O)[C@H](CC(N)=O)NC(=O)[C@H](CO)NC(=O)[C@H](CO)NC(=O)[C@H](Cc1c[nH]cn1)NC(=O)[C@H](Cc1c[nH]cn1)NC(=O)[C@H](CC(C)C)NC(=O)[C@H](Cc1ccccc1)NC(=O)[C@H](CCC(=O)O)NC(=O)[C@H](C)NC(=O)[C@H](CC(C)C)NC(=O)[C@H](CCCNC(=N)N)NC(=O)[C@H](CCC(N)=O)NC(=O)[C@@H](NC(=O)[C@H](C)NC(=O)[C@@H]1CSSC[C@H](NC(=O)[C@H](CCCCN)NC(=O)[C@H](Cc2c[nH]cn2)NC(=O)CC[C@H](NC(=O)CCCCCCCCCCCCCCCCCCC(=O)O)C(=O)O)C(=O)N[C@@H](CC(N)=O)C(=O)N[C@@H]([C@@H](C)O)C(=O)N[C@@H](C)C(=O)N[C@@H]([C@@H](C)O)C(=O)N1)[C@@H](C)O)C(=O)N[C@@H](CC(C)C)C(=O)N1CCC[C@H]1C(=O)N1CCC[C@H]1C(=O)N[C@H](C(=O)N[C@@H](CC(N)=O)C(=O)N[C@H](C(=O)NCC(=O)N[C@@H](CO)C(=O)N[C@@H](Cc1c[nH]cn1)C(=O)N[C@H](C(=O)N[C@@H](Cc1ccc(O)cc1)C(N)=O)[C@@H](C)O)C(C)C)[C@@H](C)O` [Example 66, N-alpha-[(S)-4-Carboxy-4-(19-carboxynonadecanoylamino)butyryl]-His-[Glu14,His17,His35]-pramlintide] ({C20 diacid-γGlu}-HKCNTATCATQRLAEFLHHSSNNFGPILPPTNVGSHTY-NH2; disulfide 3-8): the “ThT pH 4.0 lag time” value was >45 h.
